Experimental findings from article PMC3254106 (ACS medicinal chemistry letters, 2011) are described below.

The target in one assay is T1, AXL kinase (Homo sapiens, UniProt P30530).
T1 sequence (P30530 26-894): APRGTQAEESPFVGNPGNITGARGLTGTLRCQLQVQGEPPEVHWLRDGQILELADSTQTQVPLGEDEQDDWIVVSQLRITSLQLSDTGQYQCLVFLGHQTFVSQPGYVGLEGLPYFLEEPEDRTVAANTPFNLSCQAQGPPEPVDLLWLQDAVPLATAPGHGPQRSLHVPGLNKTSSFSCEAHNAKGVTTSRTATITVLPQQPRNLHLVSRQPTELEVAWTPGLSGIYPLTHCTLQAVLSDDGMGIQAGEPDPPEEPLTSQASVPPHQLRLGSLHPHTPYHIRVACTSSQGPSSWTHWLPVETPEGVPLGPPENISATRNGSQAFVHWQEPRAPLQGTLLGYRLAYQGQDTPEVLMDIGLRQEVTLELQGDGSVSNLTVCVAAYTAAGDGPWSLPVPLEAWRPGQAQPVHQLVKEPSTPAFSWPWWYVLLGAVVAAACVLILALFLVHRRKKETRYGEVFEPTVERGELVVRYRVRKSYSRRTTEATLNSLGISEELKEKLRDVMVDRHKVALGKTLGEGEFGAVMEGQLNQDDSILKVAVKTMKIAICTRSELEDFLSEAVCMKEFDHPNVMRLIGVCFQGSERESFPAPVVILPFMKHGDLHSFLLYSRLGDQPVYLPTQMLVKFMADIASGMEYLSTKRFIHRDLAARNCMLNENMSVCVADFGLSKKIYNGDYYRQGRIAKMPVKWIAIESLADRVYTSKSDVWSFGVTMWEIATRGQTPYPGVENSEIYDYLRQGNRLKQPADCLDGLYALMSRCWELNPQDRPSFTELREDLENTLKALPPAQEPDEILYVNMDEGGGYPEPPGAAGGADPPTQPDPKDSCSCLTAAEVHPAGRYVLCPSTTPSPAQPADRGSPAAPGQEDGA
The assay is described as follows: AXL kinase biochemical assay.

Assay [1] has as its system Pancreatic cancer cells (PSN-1). The assay is described as follows: Cell cycle analysis, propidium iodide flow cytometry. Type of assay: cell-based. The following applies: PSN-1, 30 nM, 24 hours.
A further assay deals with panel of 75 kinases. The assay can be described thus: Kinase panel profiling at 200 nM. Conditions: 200 nM profiling.
The next assay relates to Aurora. The assay can be described thus: Aurora activity of analogues. Type of assay: biochemical.

Structures are written as SMILES. pIC50: −log10 of the molar value.

In the case of `CN1CCN(c2ccc(Nc3nc(-c4ccc(F)c(Cl)c4)cc(-c4ccc[nH]4)n3)cc2F)CC1` [Compound 1], the pIC50 (as a rule, the IC50 on a negative log10 scale, so that one unit is a factor of ten) on AXL kinase is 4.48.

Molecule `CN1CCN(c2ccc(Nc3nc(-c4ccc(F)c(Cl)c4)cc(-c4ccc(F)c(Cl)c4)n3)cc2F)CC1` [Compound 2] gave a negative logarithm of the IC50 (pIC50) at AXL kinase of 4.33.

On to `CN1CCN(Cc2ccc(Nc3ncc(Cl)c(Nc4ccccc4S(=O)(=O)N(C)C)n3)cc2)CC1` [Compound 13], for which, in assay [1], the “G2/M (4N) population of cells” value is reported as “significant increase” and the “cells with ≥4N DNA (8N peak, endoreduplication)” value is “accumulation of cells with ≥4N DNA”. Further, the “activity against MER, TYRO3, Aurora A and B, JAK2, ALK, ABL1 and CHEK1” value in the assay with panel of 75 kinases is reported as “strong activity”.

In the case of `Cc1cnc(Nc2ccc(CN3CCN(C)CC3)cc2)nc1-c1ccc(F)cc1S(=O)(=O)N1CCCC1` [Compound 15], the “Aurora activity” value with Aurora is on record as “strong aurora activity”.

As to `CN1CCN(Cc2ccc(Nc3ncc(F)c(-c4ccc(F)cc4S(=O)(=O)N4CCCC4)n3)cc2)CC1` [Compound 16], in the assay on Aurora, the “Aurora activity” value is “strong aurora activity”.

`CN1CCN(Cc2ccc(Nc3ncc(Cl)c(-c4ccc(F)cc4S(=O)(=O)N(C)C)n3)cc2)CC1` [Compound 26]: the “Aurora activity” value in the assay with Aurora is “strong aurora activity”.

Consider `CN1CCN(Cc2ccc(Nc3ncc(Cl)c(-c4ccc(F)cc4S(=O)(=O)N4CCCC4)n3)cc2)CC1` [Compound 27], for which, in the assay with Aurora, the “Aurora activity” value was “strong aurora activity”.
